One block for each molecule: values may come before it.
Tests used:
Assay type in all cases: functional, cell-based
Details in all cases: pig, llc-pk1, 20 µM
[1] = molecular target: T1, ATP-dependent translocase ABCB1 (Homo sapiens, UniProt P08183); assay: TP_TRANSPORTER: increase in Vinblastine uptake (Vinblastine: 0.02 uM, Tangeretin: 20 uM) in MDR1-expressing LLC-PK1 cells
[2] = molecular target: T1, ATP-dependent translocase ABCB1; assay: TP_TRANSPORTER: increase in Vinblastine uptake (Vinblastine: 0.02 uM, HMF: 20 uM) in MDR1-expressing LLC-PK1 cells
[3] = molecular target: T1, ATP-dependent translocase ABCB1; assay: TP_TRANSPORTER: increase in Vinblastine uptake (Vinblastine: 0.02 uM, Nobiletin: 20 uM) in MDR1-expressing LLC-PK1 cells

T1 sequence (P08183 whole entry): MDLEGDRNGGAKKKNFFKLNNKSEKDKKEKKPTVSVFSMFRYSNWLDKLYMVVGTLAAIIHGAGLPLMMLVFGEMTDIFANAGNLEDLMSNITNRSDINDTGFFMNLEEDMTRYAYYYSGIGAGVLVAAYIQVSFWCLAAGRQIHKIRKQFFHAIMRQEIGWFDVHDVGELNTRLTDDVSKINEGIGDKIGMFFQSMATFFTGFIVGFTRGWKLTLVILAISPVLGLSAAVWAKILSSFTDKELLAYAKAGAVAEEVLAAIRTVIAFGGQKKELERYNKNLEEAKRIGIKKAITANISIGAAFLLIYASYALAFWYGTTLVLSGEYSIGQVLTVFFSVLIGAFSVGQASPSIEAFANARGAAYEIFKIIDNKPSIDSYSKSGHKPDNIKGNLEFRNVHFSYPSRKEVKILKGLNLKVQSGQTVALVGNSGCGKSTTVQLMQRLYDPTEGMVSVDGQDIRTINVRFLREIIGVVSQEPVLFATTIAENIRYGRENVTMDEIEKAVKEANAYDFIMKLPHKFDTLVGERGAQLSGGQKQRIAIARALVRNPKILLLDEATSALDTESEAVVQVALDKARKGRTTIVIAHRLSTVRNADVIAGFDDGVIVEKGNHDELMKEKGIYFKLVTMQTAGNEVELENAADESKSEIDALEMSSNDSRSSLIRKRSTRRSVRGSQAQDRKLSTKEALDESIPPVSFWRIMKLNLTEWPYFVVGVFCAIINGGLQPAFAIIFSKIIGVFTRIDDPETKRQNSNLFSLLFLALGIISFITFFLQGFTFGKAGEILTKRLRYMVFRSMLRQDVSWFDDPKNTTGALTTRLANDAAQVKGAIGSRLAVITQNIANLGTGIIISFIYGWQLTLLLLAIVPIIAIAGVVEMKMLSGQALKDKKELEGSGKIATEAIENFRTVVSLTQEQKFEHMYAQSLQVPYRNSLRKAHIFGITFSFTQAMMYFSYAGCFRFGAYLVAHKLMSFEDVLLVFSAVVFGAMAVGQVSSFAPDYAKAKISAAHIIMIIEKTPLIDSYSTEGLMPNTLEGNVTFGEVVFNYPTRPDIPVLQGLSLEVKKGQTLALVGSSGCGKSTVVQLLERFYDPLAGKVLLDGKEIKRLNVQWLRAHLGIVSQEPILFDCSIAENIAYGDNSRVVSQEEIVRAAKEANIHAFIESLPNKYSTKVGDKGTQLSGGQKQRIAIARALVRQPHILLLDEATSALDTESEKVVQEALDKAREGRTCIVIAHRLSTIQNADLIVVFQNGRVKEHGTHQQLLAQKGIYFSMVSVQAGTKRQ

Activity [1]: 175%
Compound: COc1ccc(-c2cc(=O)c3c(OC)c(OC)c(OC)c(OC)c3o2)cc1 [TANGERETIN]

Activity [2]: 935%
Compound: COc1ccc(-c2oc3c(OC)c(OC)c(OC)c(OC)c3c(=O)c2OC)cc1OC [3,5,6,7,8,3',4'-HEPTAMETHOXYFLAVONE]

Activity [3]: 604%
Compound: COc1ccc(-c2cc(=O)c3c(OC)c(OC)c(OC)c(OC)c3o2)cc1OC [NOBILETIN]
